Data on eight molecules can be found in publication PMC5412877, “Discovery of a PCAF Bromodomain Chemical Probe” (Angewandte Chemie (International Ed. in English), 2016).

Where two headings read alike, the source gives them in different places.

What is called ΔTm is the shift of the melting midpoint relative to a reference. In general, EC50 refers to the midpoint of the concentration-response curve.

In test [1] the target is T1, PCAF Brd (Homo sapiens, UniProt Q92831).
T1 construct: Human bromodomains were cloned, expressed and purified as previously described; made in house
T1 sequence (Q92831 723-827 limits assumed): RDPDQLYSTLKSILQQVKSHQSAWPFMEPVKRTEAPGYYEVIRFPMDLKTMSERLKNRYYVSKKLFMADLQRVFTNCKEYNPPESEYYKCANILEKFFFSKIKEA
Put plainly: Differential scanning fluorimetry (DSF), PCAF Brd. Format: binding. Particulars: compound concentration 10 μM. As to the method: (§1) Protein Expression and Purification
(§2) Human bromodomains were cloned, expressed and purified as previously described.[1]
(§3) Differential Scanning Fluorimetry (DSF)
(§4) Thermal melting points were recorded using an Mx3005p Real Time PCR Machine (Stratagene).
(§5) Subject proteins were buffered in 10 mM HEPES at pH 7.5, 500 mM NaCl and assayed in a 96-well […]
(§6) plate at a final concentration of 2 μM in 20 μL volume. Compounds were then added to a final […]
(§7) concentration of 10 μM. SPYRO Orange (Molecular Probes) was used as a fluorescent probe at a […]
(§8) dilution of 1:1000. Excitation and emission filters for the SPYRO-Orange dye were set to 465 nm and […]
(§9) 590 nm, respectively. The temperature was raised with a step of 3 °C/min from 25 °C to 96 °C and […]
(§10) fluorescence readings were taken at each interval. Data was analysed as previously described.[2]
(§11) Bromodomain affinity selectivity panel of (S)-11
(§12) Supplemental Figure 1. DSF Selectivity panel of (S)-11 against 48 human Bromodomains. […]
(§13) ┼Mean ΔTm ± SEM (number of measurements= 2). Compound concentration: 10 μM […]
(§14) (1 picture or pasted object on this page, not shown here)
On the technique in general: In DSF a fluorescence change marks the thermal transition of the protein.

Test [2] deals with T1, PCAF Brd. Put plainly: Isothermal titration calorimetry (ITC), PCAF Brd. Format: binding. As to the method:
Isothermal Titration Calorimetry (ITC)
Experiments were carried out on a Nano-ITC Standard Volume Instrument (TA Instruments). All experiments were carried out at 25 °C in 20 mM HEPES pH 7.5, 150 mM NaCl, 0.5 mM TCEP and 5% glycerol. Protein solutions were buffer exchanged by gel filtration. The titrations were conducted using an initial injection of 2 μL followed by 32 injections of 8 μL. Background dilution heat was substracted from each experiment. Thermodynamic parameters were calculated using ΔG = ΔH-T ΔS = -RTlnKB , where KD = 1/KB. ΔG, ΔH and ΔS are changes in free energy, enathalpy and entropy resepectively. Independent single site binding models were employed in data analysis.
Supplemental Figure 3. ITC trace of D-Moses and PCAF Brd […]

Another test concerns the target T2, GCN5L2 (Homo sapiens, UniProt Q92830).
T2 construct: made in house
T2 sequence (Q92830 728-832 limits assumed): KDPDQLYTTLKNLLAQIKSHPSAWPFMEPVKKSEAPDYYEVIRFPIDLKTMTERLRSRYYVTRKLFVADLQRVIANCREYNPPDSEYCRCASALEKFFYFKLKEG
In words: Differential scanning fluorimetry (DSF), GCN5 (GCN5L2) Brd. In kind it is binding. Particulars: compound 10 μM; for ΔTm at 10 µM: read-out: GCN5L2 ΔTm (°C) (DSF). As to the method:
as §1, §2, §3, §4, §5, §6, §7, §8, §9, §10, §11, §12, §13, §14

The next test concerns HIV‐1. Particulars: ref 8c; read-out: HIV-1 EC50 (disrupting HIV‐1 replication); cited from earlier work.
The mark [3] stands for this setting: Supplemental Table 3, compound concentration 30 μM, protein concentration 280-320 μM, read-out: PCAF KD (μM) (ITC).
Setting [4] is: Table 1, read-out: K D [μM] (ITC) PCAF Brd.

Take `CC(=O)O.Cc1nnc2c3ccccc3c(NCCN3CCCC3)nn12` [Compound 59]: the “ΔT m [°C] PCAF (DSF)” value on PCAF Brd [1] stood at 3.7 °C. The Kd at PCAF Brd [2] (setting [3]) is 4.3 µM. The “GCN5L2 ΔTm (°C) (DSF)” value on GCN5L2 was determined as 0.7 °C.
Regarding `Cc1nnc2c3ccccc3c(NC(C)CN3CCC(C)CC3)nn12` (stereo not shown) [Compound 70], the “ΔT m [°C] PCAF (DSF)” value at PCAF Brd [1] was 0 °C. Also, the Kd at PCAF Brd [2] (setting [3]) was more than 30 µM. For the same molecule, the ΔTm at 10 µM at GCN5L2 was found to be 0.1 °C.
On to `Cc1ccc(NCCCN)c([N+](=O)[O-])c1` [Compound 1], for which the EC50 in the test on HIV‐1 was 2.8 µM.
Take `Cc1nnc2c3ccccc3c(N3CCCC(N(C)C)C3)nn12` (stereo not shown) [Compound 75]: the “ΔT m [°C] PCAF (DSF)” value at PCAF Brd [1] turned out to be 0.4 °C. Moreover, the Kd at PCAF Brd [2] (setting [3]) was more than 30 µM. Also, the ΔTm at 10 µM at GCN5L2 was found to be 0.2 °C.
`CCN(CC)CC(C)Nc1nn2c(C(F)(F)F)nnc2c2ccccc12` (stereo not shown) [Compound 90]: the “ΔT m [°C] PCAF (DSF)” value at PCAF Brd [1] was 0.4 °C. For the same molecule, the Kd on PCAF Brd [2] (setting [3]) is more than 30 µM. Also, the “GCN5L2 ΔTm (°C) (DSF)” value on GCN5L2 was determined as 0.1 °C.
Consider `Cc1nnc2c3ccccc3c(NCCCCN(C)C)nn12` [Compound 9], for which the “ΔT m [°C] PCAF (DSF)” value at PCAF Brd [1] was 0.9 °C. Further, on PCAF Brd [2] (setting [4]), the Kd was more than 30 µM. Moreover, the ΔTm at 10 µM on GCN5L2 was found to be 0.3 °C.
As to `COC(=O)c1ccc([C@@H]([C@H](C)Nc2nn3c(C)nnc3c3ccccc23)N(C)C)cc1` [Compound 40], the “ΔT m [°C] PCAF (DSF)” value at PCAF Brd [1] came to 9.6 °C. Besides, the Kd at PCAF Brd [2] (Table 2, read-out: K D (nM) (ITC) PCAF Brd) was determined as 0.133 ± 0.015 µM. At GCN5L2, the ΔTm at 10 µM stood at 6.3 °C.
For the molecule `CCN(CC)CC(C)Nc1nn2c(C)nnc2c2ccccc12` (stereo not shown) [Compound 14], the “ΔT m [°C] PCAF (DSF)” value on PCAF Brd [1] was determined as 0 °C. At PCAF Brd [2] (setting [4]), the Kd is more than 30 µM. Moreover, on GCN5L2, the ΔTm at 10 µM was 0 °C.
